The conditions of series [1]: reference (94), cited from earlier work.
The test system of another series is U87 GBM xenografts. The note with it: systemic delivery, reference (3); cited from earlier work.
The test system of the next series is Daoy xenografts. The note with it: systemic delivery, reference (3); cited from earlier work.
The test system of series [2] is Nf1−/− astrocytes. The series can be described thus: Cell number by trypan blue exclusion, Nf1−/− astrocytes. It counts as cell-based, mouse. The conditions noted are these: data not shown. On the procedure: (§1) Culture and treatment of primary astrocytes. Primary cultures of astrocytes were prepared from post-natal day two Nf1^flox/flox mice as previously described (134) and in accordance with established Animal Studies Protocols at Washington University School of Medicine. Cultures were infected with adenovirus containing either Cre recombinase (Nf1−/−) or LacZ (Nf1+/+). Primary cultures of astrocytes were grown under standard adherent conditions in serum free media (DMEM/F12 or Neurobasal (Gibco-BRL)) in the presence or absence of 0.1 μg/ml CXCL12 (Peprotech) and 10 μM Forskolin for 24 hours, as indicated. Cell number was determined after 24 hours by trypan blue exclusion and the growth effects of CXCL12 were derived as follows: ((cell number in the presence of CXCL12—cell number cell in the absence of CXCL12)/cell number in the absence of CXCL12)×100.)
(§2) To determine the biological significance of CXCR4 activation to NF1 glioma biology, we next sought to evaluate the regulation of CXCL12 growth effects by neurofibromin in astrocytes. While the true cell of origin of astrocytomas remains unknown, we utilized primary cultures of cortical astrocytes as a model of a normal counterpart to astrocytoma cells. Astrocytes were derived from Nf1^flox/flox mice and rendered Nf1+/+ or Nf1−/− by infection with adenovirus encoding LacZ or Cre recombinase, respectively.

Series [3] has as its system Nf1+/+ astrocytes. The series can be described thus: Cell number by trypan blue exclusion, Nf1+/+ astrocytes. The conditions noted are these: data not shown. It counts as cell-based, mouse. On the procedure:
as §1, §2

In a further series the target is CXCR4 (Homo sapiens, UniProt P61073). The series can be described thus: Stimulated CXCR4 phosphorylation in LN428 GBM cells (western blot). It counts as cell-based. Set-up: lysates from the glioblastoma cell line LN428, which is known to express high levels of CXCR4; endogenous in cells; host or cells: LN428 GBM cell line. On the procedure: Cell Culture, transfections and stimulation of CXCR4 phosphorylation. The U87 glioblastoma multiforme (GBM, grade IV) cell line was obtained from the American Type Culture Collection. The LN428 GBM cell line was a kind gift of Dr Erwin van Meir (Winship Cancer Center, Emory University, Atlanta, Ga.). U87 cells were grown in minimum essential a media supplemented with 10% fetal bovine serum ((FBS), Biomedia, Foster City, Calif.). LN428 cells were grown in DMEM (Fisher, Pittsburgh, Pa.) supplemented with 10% horse serum (Sigma). All cells were grown in the presence of penicillin-streptomycin. The coding sequence for human CXCR4 was obtained by high fidelity RT-PCR (Superscript III Platinum, Invitrogen), and cloned into the expression vector pMSCVneo (Clontech, Palo Alto, Calif.). Transfections were performed with 0.3 μg of plasmid DNA in 20 μl Lipofectamine (Invitrogen)/35 mm^2 tissue culture dish for 9 hours according to the manufacturer's instructions. Cells recovered in Optimem supplemented with 10% FBS. Transfected and non-transfected cells were placed in serum free media for 24 hours prior to treatment with agents to stimulate CXCR4 phosphorylation. Treatment was usually for 0 or 10 minutes with 1 μg/ml CXCL12 (Peprotech, Rocky Hill N.J.), 4 μM 4-Phorbol 12-myristate 13-acetate (PMA) or 10 nM EGF. In some experiments, CXCL12 was washed away and cells were incubated for an additional 20 minutes in serum free media alone.
CXCR4, sequence (P61073 whole entry): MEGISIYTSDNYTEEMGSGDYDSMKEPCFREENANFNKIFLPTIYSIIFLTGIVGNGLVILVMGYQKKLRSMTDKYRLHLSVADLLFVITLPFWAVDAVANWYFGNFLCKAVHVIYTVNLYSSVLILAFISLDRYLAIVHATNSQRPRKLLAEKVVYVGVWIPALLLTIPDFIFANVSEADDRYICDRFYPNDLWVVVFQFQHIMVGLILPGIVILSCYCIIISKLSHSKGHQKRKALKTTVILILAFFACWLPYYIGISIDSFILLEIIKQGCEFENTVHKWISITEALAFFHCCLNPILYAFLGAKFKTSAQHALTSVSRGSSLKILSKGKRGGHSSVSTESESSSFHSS
Western Blot Analysis. Whole-cell extracts were obtained by lysing cells with lysis buffer (20 mM Tris pH 7.4, 137 mM NaCl, 10% Glycerol and 1% Triton X-100) supplemented with phosphatase inhibitor cocktail set II (Calbiochem, La Jolla, Calif.) and protease inhibitors PMSF (1 mM), leupeptin (0.005 mg/ml) and aprotonin (0.005 mg/ml). The proteins (50-75 μg) were resolved with 10% Bis-Tris gels (Invitrogen) and transferred onto the nitrocellulose membrane Hybond ECL (Amersham, Piscataway, N.J.) according to standard protocols. Polyclonal anti-CXCR4 antibody was used at a 1:500 dilution and P338-CXCR4 and P339-CXCR4 directed antibodies were used at 1:100 dilutions overnight at 4° C. This was followed by incubation with horseradish peroxidase-conjugated secondary antibody (1:15,000; Bio-Rad). Peroxide activity was detected using the enhanced chemiluminescence Supersignal West Dura system (Pierce, Rockford, Ill.). Mouse anti-actin antibody at a concentration of 1:1500 was used as a loading control. Peptide competitions and lambda phosphatase treatment were performed as described above.
The utility of these antibodies for evaluating the relationship between ligand binding and CXCR4 function is dependent upon their ability to distinguish a ligand activated form of the receptor. Serum starvation increased CXCL12 responsiveness (data not shown), and for all of these experiments LN428 GBM cells were serum starved for 24 hours prior to CXCL12 treatment. Serum starved LN428 cells were treated with 1 μg/ml CXCL12 for 0 or 10 minutes and the abundance of phospho-CXCR4 was determined by western blot and immuno-localization in fixed cells. […] A similar CXCL12-induced increase in P339-CXCR4 (FIG. 3B), but not P338-CXCR4 (data not shown) immunoreactivity was seen by immunofluorescent analysis of paraformaldehyde fixed cells. After 10 minutes of exposure to CXCL12, P339-CXCR4 can be seen localized to the surface of LN428 cells (FIG. 3B). CXCL12 was then washed away and cells were incubated in its absence for an additional 20 minutes. Surface labeling declined as a function of time and P339-CXCR4 was seen accumulating intracellularly.
Whether this is the only kinase that can phosphorylate these residues is unclear. The observation that protein kinase C (PKC) stimulated CXCR4 internalization also depends upon phosphorylation of this region of the molecule raises the question of whether these sites might also be PKC phosphorylation sites (17, 19, 27, 28). […]

Series [4] has as its system Nf1−/− astrocytes. As to the kind of experiment: Intracellular cAMP by ELISA, Nf1−/− astrocytes. It counts as cell-based, mouse. On the procedure:
(§3) cAMP measurements. cAMP was measured by ELISA (Cayman Chemical Company, Ann Arbor, Mich. or Assay Designs, Ann Arbor, Mich.). Briefly, astrocyte cultures were lysed in 0.1 N HCl. After the removal of cellular debris, soluble cellular extract was dried down and resuspended in EIA buffer. Experimental samples and cAMP standard curve were acetylated to increase the sensitivity of the assay and incubated with cAMP ACHe tracer and cAMP EIA anti-serum overnight at 4° C. according to the manufacturer's instructions. After extensive washing, bound antibody was measured by spectrophotometric analysis. Concentrations of cAMP were derived from comparison with standard curve according to manufacturer's instructions.
(§4) We evaluated the time dependent changes in intracellular cAMP in Nf1+/+ and Nf1−/− astrocytes after exposure to 0.1 μg/ml CXCL12. […] However, in Nf1+/+ astrocytes, intracellular levels of cAMP rapidly recovered to baseline and oscillated between baseline and 40% of baseline over the 45-minute experimental period (FIG. 10B).
(§5) We hypothesized that if cooperative signaling between Nf1 loss and CXCR4 activation promotes tumor formation through the suppression of cAMP, then agents that alter intracellular cAMP should modulate CXCL12 responses. We treated astrocytes with the adenylyl cyclase (AC) activator forskolin in the presence and absence of CXCL12. […] In these experiments, forskolin elevated intracellular cAMP levels in both Nf1+/+ and Nf1−/− astrocytes with peak values of 17.8+/−0.4 and 19.4+/−4.5 pmol/mg of protein, respectively, after 24 hours of treatment. The effect of forskolin was not abrogated by co-treatment with CXCL12. Under these conditions, cAMP levels were 17.9+/−2.5 and 10.4+/−5.8 pmol/mg of total protein in Nf1+/+ and Nf1−/− astrocytes, respectively. […] The effect of forskolin on CXCL12-mediated Nf1−/− apoptosis was evidenced by changes in the percentage of Nf1−/− astrocytes in the sub-G0 fraction of the cell cycle (FIG. 11B). Thus while astrocyte growth is dependent upon MEK and PI3 kinase activity, CXCL12-induced Nf1−/− astrocyte growth requires the suppression of intracellular cAMP levels.
In general terms: In an ELISA, binding on a coated surface is turned into a signal by an enzyme label.

The test system of series [5] is Nf1+/+ astrocytes. As to the kind of experiment: Intracellular cAMP by ELISA, Nf1+/+ astrocytes. It counts as cell-based, mouse. On the procedure: as §3, §4, §5
The mark [6] stands for this setting: 1 μg/ml CXCL12, 4 μM PMA or 10 nM EGF.
[7] abbreviates: forskolin 10 μM co-treatment with CXCL12 0.1 μg/ml.

Here are results for 4 compounds from US7892767B2, “Phosphospecific chemokine receptor antibodies” (Washington University in St. Louis, priority 2005, dated 2011).

For `c1cc(CN2CCCNCCNCCCNCC2)ccc1CN1CCCNCCNCCCNCC1` [AMD 3100], in series [1] (sustained dosing over a 10 day period), the toxicities result was “mild toxicities”. Further, the “white blood cell counts” value in series [1] (throughout an 18 day follow-up period after cessation) is “elevations of white blood cell counts”. Also, in the series with U87 GBM xenografts, the “intracranial growth of glioblastoma xenografts” value is “blocked the intracranial growth”. For the same compound, the “intracranial growth of medulloblastoma xenografts” value in the series on Daoy xenografts was “blocked the intracranial growth”.
As for `COc1cccc(-c2cc(=O)c3ccccc3o2)c1N` [PD98059], the astrocyte growth entry in the series with Nf1−/− astrocytes [2] and with Nf1+/+ astrocytes [3] was “prevented growth” in each case.
For `CCCCCCCCCCCCCC(=O)O[C@@H]1[C@@H](C)[C@@]2(O)[C@@H](C=C(CO)C[C@]3(O)C(=O)C(C)=C[C@@H]23)[C@@H]2C(C)(C)[C@]12OC(C)=O` [PMA, 4-Phorbol 12-myristate 13-acetate], at CXCR4 (setting [6]), the P338 phosphorylation stimulated result was “not” and the P339 phosphorylation result is recorded as “stimulated”. The “P339-CXCR4 immunoreactivity compared with response to CXCL12” value on CXCR4 (4 μM PMA or 10 nM EGF) is on record as “greater”.
As to `C=C[C@@]1(C)CC(=O)[C@]2(O)[C@@]3(C)[C@@H](O)CCC(C)(C)[C@@H]3[C@H](O)[C@H](OC(C)=O)[C@@]2(C)O1` [forskolin], the values for the cAMP levels with Nf1−/− astrocytes [4] (setting [7]) and in the series with Nf1+/+ astrocytes [5] (setting [7]) were 10.4+/−5.8 pmol/mg of total protein and 17.9+/−2.5 pmol/mg of total protein, respectively. Besides, the “peak intracellular cAMP” value in the series with Nf1−/− astrocytes [4] (forskolin 10 μM, 24 hours) is 19.4+/−4.5 pmol/mg of protein; in the series on Nf1+/+ astrocytes [5] (forskolin 10 μM, 24 hours), 17.8+/−0.4 pmol/mg of protein.
